The text below walks through data of patent US20030073117A1, “Novel protein and gene encoding the protein” (Daiichi Pharmaceutical Co., Ltd., priority 2000, published 2003).

Assay [1] deals with T1, SAC1 (Mus musculus, UniProt Q9EPK8).
T1 construct: the region containing the full length was amplified by PCR using primer set (A13st1 and mA13end1); expressed in transfected cells; host or cells: CHO cells, transient co-transfection of SAC1 in pCMV-SPORT with pEGFP-N1 as a separate marker plasmid
Briefly: Fluorescence measurement (fura-2) of SAC1 expression cells under touch stress. The assay is classed as cell-based. The following applies: SAC1 expression CHO cells (GFP positive), touched by glass pipette, added Gd^3+; no added Gd^3+ gave 12.8 ± 1.4, control cells 4.5 ± 3.8. On the procedure: (§1) The plasmid (pEGFP-N1; Clonetech Co.) expressing a green fluorescent protein was used as a marker for transfection. For the transient expression of protein, CHO cells were cultured in a HamF-12 culture medium (Gibco-BRL Co.) supplemented with 10% fetal bovine serum, 100 U/ml penicillin, and 100 μg/ml streptomycin. On the day before transformation, CHO cells (10^5 cells) were seeded to a 35 mm dish in which a cover slip coated with rat tail collagen was placed. On the next day, SAC1 plasmid (1 μg) in PCMV-SPORT (Gibco-BRL Co.) and pEGFP-N1 (1 μg) were added per one transfection to a mixture of serum-free medium (97 μl) and FuGENE6 (Roche, 3 μl) which had been incubated for 5 minutes at room temperature. […] The electrophysiological test was started after 24 hours and the fluorescence measurement was carried out 48 hours after the transfection.
For 2-3 hours prior to start of the test, the transformed cells were incubated with 10 μM fura-2AM (Dojin Co.) dissolved in a serum-free culture medium. GFP fluorescence at 480 nm and fura-2 fluorescence at 360/380 nm were visualized by a manual exchange of dichroic Olympus system mirrors (Merlin Co.). Images for the fluorescence at 480 nm and fluorescence at 360/380 nm were obtained every two seconds. The fluorescence intensity of the objective area was calculated for analysis. […]

The target of assay [2] is T1, SAC1. Briefly: Single channel analysis (patch clamp) of SAC1 expression cells under negative pressure. It counts as cell-based. On the procedure: as §1, with “placed.” for “placed. On the next day, SAC1 plasmid (1 μg) in PCMV-SPORT (Gibco-BRL Co.) and pEGFP-N1 (1 μg) were added per one transfection to a mixture of serum-free medium (97 μl) and FuGENE6 (Roche, 3 μl) which had been incubated for 5 minutes at room temperature.”
Patch clamp recordings were carried out according to the method described in a previous paper (Suzuki, M., Sato, J., Kutsuwada, K., Ooki, G. and Imai, M. (1999) J. Biol. Chem. 274, 6330-5). GFP positive cells were visualized by a fluorescence measurement with an emission of 490 nm (CAM 2000 system; Jusco Co., Ltd.). […] In single channel analysis, the current was recorded with an EPC-7 patch clamp amplifier (List-Electronic Co., Ltd.) and stored on a DAT recorder (DAT-200; Sony Corp.) at 10 KHz. […] The data were analyzed using Igor ver. […] To analyze the open probability in the presence of GdCl3, single channel amplitude was set for those without reagent and the mean open probability (Po) was determined by the records during 10 seconds. […]

T1 sequence (Q9EPK8 whole entry): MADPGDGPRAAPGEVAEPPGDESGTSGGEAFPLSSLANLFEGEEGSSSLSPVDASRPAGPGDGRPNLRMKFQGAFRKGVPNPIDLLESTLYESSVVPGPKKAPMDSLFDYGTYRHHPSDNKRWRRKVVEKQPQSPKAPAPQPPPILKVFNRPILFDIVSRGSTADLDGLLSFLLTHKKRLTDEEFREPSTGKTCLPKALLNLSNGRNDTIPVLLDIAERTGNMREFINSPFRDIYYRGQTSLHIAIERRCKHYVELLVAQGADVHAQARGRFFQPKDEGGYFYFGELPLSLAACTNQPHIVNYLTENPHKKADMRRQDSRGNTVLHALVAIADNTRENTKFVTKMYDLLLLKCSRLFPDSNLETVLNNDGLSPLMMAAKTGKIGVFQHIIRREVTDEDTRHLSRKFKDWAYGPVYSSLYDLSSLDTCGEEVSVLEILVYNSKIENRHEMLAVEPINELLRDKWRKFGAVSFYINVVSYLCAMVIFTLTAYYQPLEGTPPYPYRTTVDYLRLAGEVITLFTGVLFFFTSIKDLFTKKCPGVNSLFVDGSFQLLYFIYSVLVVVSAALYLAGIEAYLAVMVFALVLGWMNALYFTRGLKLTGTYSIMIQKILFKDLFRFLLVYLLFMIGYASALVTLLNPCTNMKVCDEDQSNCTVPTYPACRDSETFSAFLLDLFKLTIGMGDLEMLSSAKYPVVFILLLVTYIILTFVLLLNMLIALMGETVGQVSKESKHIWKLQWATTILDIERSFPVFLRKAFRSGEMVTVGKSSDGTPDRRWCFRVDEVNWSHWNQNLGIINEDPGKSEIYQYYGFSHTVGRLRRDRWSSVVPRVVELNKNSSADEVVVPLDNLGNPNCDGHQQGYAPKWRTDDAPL

Take `[Cl][Gd]([Cl])[Cl]` [Gd^3+, GdCl3]: the “change of the fura-2 fluorescence ratio (360 nm/380 nm) on mechanical stimulus” value on SAC1 [1] is reported as 4.8 ± 1.4 (10). Moreover, the “response (mean open probability Po) to negative pressure” value at SAC1 [2] (0.5 μM GdCl3 added to the pipette, cell-attached, FIG. 3C) is reported as “not affected”. The “effect on single channel activated by negative pressure” value at SAC1 [2] (transformed cells that express SAC1) was “blocked”.
